# Results taken from patent US7749976B2, “Isolated PTPMT1 protein which mediates insulin production and uses thereof” (The Regents of the University of California, priority 2005, dated 2010).
# How the values were obtained:
# Format in all cases: cell-based, rat
# INS-1 832/13 cells [1] = assay: Glucose-stimulated insulin secretion assay; conditions: basal (3 mM) and glucose stimulated (15 mM) conditions, out to 120 min
# Experimental: INS-1 832/13 cells (5×10^6 per reaction) were electroporated as above, and split between 4 wells of a 12-well plate. After 72 hours, cells were washed once with low glucose (3 mM) standard assay buffer (SAB: 114 mM NaCl, 4.7 mM KCl, 1.2 mM KH2PO4, 1.16 mM MgSO4, 20 mM HEPES pH 7.2, 25.5 mM NaHCO3, 10 mM CaCl2, 0.2% BSA), and then preincubated for 2 hours in fresh low glucose SAB. After preincubation, 1 mL of low or high (15 mM) glucose SAB was added to each well. At the end of the incubation time, the SAB was removed and saved, and the cells were washed once in PBS, and lysed by freezing and thawing in a Tris-EDTA solution (20 mM Tris pH 7.4, 20 mM EDTA pH 8.0, 10 mM DTT, protease inhibitors). A Bio-Rad protein assay was performed on each lysate sample to standardize the insulin assay results for protein. The ^125I-insulin Coat-A-Count RIA (Diagnostic Products Corp.) was used to assay SAB samples for insulin content.
# To test this, INS-1 832/13 cells were again treated with luciferase (control) or PTPMT1 siRNA. Seventy-two hours post siRNA treatment, cells were washed with PBS, and incubated in media containing 3 mM glucose for 2 hrs to normalize insulin release. Fresh media containing either 3 mM (low) or 15 mM (high) glucose media was then added to the cells and insulin secretion analyzed out to 120 min. […]
# INS-1 832/13 cells [2] = assay: ATP and ADP assays in siRNA-treated INS-1 832/13 cells
# Experimental: (§1) PTPMT1 expression in INS-1 832/13 cells was knocked down using 200 pmol of Ambion siRNA (sense: 5′-GUCUGUGGAUGACAAAGAAtt-3′ (SEQ ID NO:3), antisense: UUCUUUGUCAUCCACAGACtt-3′ (SEQ ID NO:4)) in an Amaxa nucleoporator with buffer T on program T-20, according to the manufacturer's protocol. Approximately 72 hrs post siRNA treatment, cells were treated as outlined in the text, pelleted and lysed in 2% TCA via sonication and/or vortexing. Precipitates were pelleted at 13,200 rpm for 2 minutes. The supernatant was removed, neutralized with 0.5 M Tris pH 7.4, and analyzed for ATP using Promega's ENLITEN luciferase bioluminescence reagent at an appropriate dilution. All ATP measurements were normalized to protein levels, as measured by the BCA method (Pierce). ADP levels were determined by converting ADP to ATP with pyruvate kinase, remeasuring ATP by the above assay, and subtracting the initial ATP readings, as reported (Gorman et al., 2003).
# Given PTPMT1's likely juxtaposition with members of the respiratory chain on the inner mitochondrial membrane, assessment of PTPMT1's endogenous function was carried out by measuring its effect on cellular ATP levels. […] Seventy-two hours post siRNA treatment, cells were washed and incubated in a 3.0 mM glucose medium for 2 hr. Cells were then lysed and ATP levels analyzed using a luciferase based luminometry reaction. Strikingly, knockdown of PTPMT1 expression increased ATP levels by an average of 82% over control cells across three separate experiments (FIG. 10B). […] ATP/ADP ratio (FIG. 10C). […] AMPK serves as a sensor of cellular energy status, becoming dephosphorylated (inactivated) when the cellular AMP:ATP ratio decreases. Consistent with the above data, AMPK is more highly phosphorylated in the control cells following the above incubation in low glucose (FIG. 10D). Thus, knockdown of PTPMT1 results in a true increase in cellular energy status, as opposed to merely a general increase in the cellular adenine pool.
# PTPMT1 = assay: Knockdown of PTPMT1 expression (immunoblot); conditions: Amaxa nucleoporation, INS-1 832/13 cells
# Experimental: as §1
# FIG. 10 illustrates that PTPMT1 is involved in the regulation of mitochondrial ATP production. […] In C whole cell ADP was measured as above.
# To simultaneously assess the effect that knockdown of PTPMT1 has on mitochondrial phosphoproteins and PI(5)P levels, its expression was knocked-down in a large quantity of INS-1 832/13 cells using adenovirus-delivered siRNA. […]
substance,measurement,setting,value
"PTPMT1 siRNA: Ambion siRNA sense 5′-GUCUGUGGAUGACAAAGAAtt-3′ (SEQ ID NO:3), antisense UUCUUUGUCAUCCACAGACtt-3′ (SEQ ID NO:4) (sense GUCUGUGGAUGACAAAGAATT; antisense UUCUUUGUCAUCCACAGACTT; chemistry not given here)",Insulin secretion versus control,INS-1 832/13 cells [1],increased insulin secretion at nearly all time points
same,Increase in ATP levels over control cells,"INS-1 832/13 cells [2]; 72 h post siRNA, 2 hr in 3.0 mM glucose, average of three experiments",82%
same,ADP levels versus control,"INS-1 832/13 cells [2]; 72 h post siRNA, low glucose 2 h","Very little, if any, difference"
same,ATP levels versus control with FCCP,INS-1 832/13 cells [2]; same buffer containing 10 μM FCCP,no difference in ATP levels
same,Endogenous PTPMT1 expression,PTPMT1,highly effective at ablating endogenous PTPMT1 expression
